From patent publication US20240368127A1, “HSD17B13 INHIBITORS AND USES THEREOF” (FL2022-001, Inc., priority 2021, published 2024)

Molecular target: T1, Recombinant human HSD17B13 enzyme (Homo sapiens, UniProt Q7Z5P4)
T1 sequence (Q7Z5P4 20-300): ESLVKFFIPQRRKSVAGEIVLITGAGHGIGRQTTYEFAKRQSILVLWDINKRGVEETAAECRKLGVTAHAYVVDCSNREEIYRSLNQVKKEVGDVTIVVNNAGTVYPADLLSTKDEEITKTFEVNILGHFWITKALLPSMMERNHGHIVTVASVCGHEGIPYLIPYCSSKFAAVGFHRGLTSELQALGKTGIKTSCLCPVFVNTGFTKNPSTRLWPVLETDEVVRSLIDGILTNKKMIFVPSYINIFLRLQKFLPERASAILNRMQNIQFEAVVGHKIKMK
Experiment: HSD17b13 NAD(P)H-Glo biochemical assay
Conditions: 50 μM estradiol, 1 mM NAD+, 37° C. for 3 hours; read-out: HSD17β13 IC50
Experimental: Example B-1: HSD17b13 NAD (P) H-Glo Biochemical Assay
Recombinant human HSD17B13 enzyme. Substrate: estradiol (Sigma β-Estradiol E8875), 100 mM in DMSO. Cofactor: NAD+ Grade I free acid (Sigma 10127965001), 20 mM in H2O. Assay buffer final concentration: 20 mM Tris pH7.4 with 0.002% Tween-20 and 0.02% BSA. Assay performed in 384 well solid bottom plate (Corning 3570). Enzymatic activity detected by NAD (P) H-Glo™ Detection System (Promega G9062).
Inhibitor compounds were serially diluted in DMSO and then further diluted in assay buffer to a 10× concentration consisting of 1% DMSO.
HSD17b13 enzyme was diluted in 1× assay buffer to the desired enzyme concentration based on the specific activity of the enzyme lot. 20 μL of diluted enzyme was added to each well along with 2.5 μL of 10× inhibitor solution. Assay plate was incubated at RT for 20 minutes, and then 2.5 μL of a 10× substrate/cofactor mix was added to each well for a final concentration of 50 μM estradiol and 1 mM NAD+. Assay plate was incubated at 37° C. for 3 hours. NAD (P) H-Glo™ Detection System reagents were prepared according to manufacturer's specifications, and 25 μL was added to each well. After incubating for 1 hour at RT, luminescence was measured.

IC50, ≤ 100 nM:
CS(=O)(=O)N1CCN(c2ccc(-n3nnc4cc(F)c(O)c(F)c43)cc2)C[C@@H]1Cc1ccccc1 [Compound 1.02, (S)-1-(4-(3-Benzyl-4-(methylsulfonyl)piperazin-1-yl)phenyl)-5,7-difluoro-1H-benzo[d][1,2,3]triazol-6-ol]
Cn1nc(-c2cc(C(F)(F)F)c(F)c(O)c2F)c2cnc(N3CCOC[C@H]3Cc3ccccc3)nc21 [Compound 5.08, (R)-3-(6-(3-Benzylmorpholino)-1-methyl-1H-pyrazolo[3,4-d]pyrimidin-3-yl)-2,6-difluoro-5-(trifluoromethyl)phenol]
Cn1nc(-c2cc(C(F)(F)F)c(F)c(O)c2F)c2cnc(N3CCN(C(=O)C(F)(F)F)CC3CC3CC3)nc21 (stereo not drawn) [Compound 11.14, 1-(3-(Cyclopropylmethyl)-4-(3-(2,4-difluoro-3-hydroxy-5-(trifluoromethyl)phenyl)-1-methyl-1H-pyrazolo[3,4-d]pyrimidin-6-yl)piperazin-1-yl)-2,2,2-trifluoroethan-1-one]
CN(c1ncc2c(-c3cc(C(F)(F)F)c(F)c(O)c3F)nn(C)c2n1)C1(Cc2ccccc2)CCOCC1 [Compound 11.07, 3-(6-((4-Benzyltetrahydro-2H-pyran-4-yl)(methyl)amino)-1-methyl-1H-pyrazolo[3,4-d]pyrimidin-3-yl)-2,6-difluoro-5-(trifluoromethyl)phenol]
COCC(=O)N1CCN(c2ncc3c(-c4cc(C(F)(F)F)c(F)c(O)c4F)nn(C)c3n2)[C@H](Cc2ccccc2)C1 [Compound 6.03, (R)-1-(3-Benzyl-4-(3-(2,4-difluoro-3-hydroxy-5-(trifluoromethyl)phenyl)-1-methyl-1H-pyrazolo[3,4-d]pyrimidin-6-yl)piperazin-1-yl)-2-methoxyethan-1-one]
Cn1nc(-c2cc(C(F)(F)F)c(F)c(O)c2F)c2cnc(N3CC[C@H]3Cc3ccccc3)nc21 (single isomer, unassigned) [Compound 15.10]
COC(=O)N1CCN(c2ncc3c(-c4cc(C(F)(F)F)c(F)c(O)c4F)nn(C)c3n2)[C@H](Cc2ccccc2)C1 [Compound 6, Methyl (R)-3-benzyl-4-(3-(2,4-difluoro-3-hydroxy-5-(trifluoromethyl)phenyl)-1-methyl-1H-pyrazolo[3,4-d]pyrimidin-6-yl)piperazine-1-carboxylate]
CC1(Cc2ccccc2)CCN(c2ccc(-n3nnc4cc(F)c(O)c(F)c43)cc2)CC1 [Compound 1.10, 1-(4-(4-Benzyl-4-methylpiperidin-1-yl)phenyl)-5,7-difluoro-1H-benzo[d][1,2,3]triazol-6-ol]
CC(=O)N1CCN(c2ncc3c(-c4cc(C(F)(F)F)c(F)c(O)c4F)nn(C)c3n2)C[C@H]1Cc1ccccc1 [Compound 6.05, (R)-1-(2-Benzyl-4-(3-(2,4-difluoro-3-hydroxy-5-(trifluoromethyl)phenyl)-1-methyl-1H-pyrazolo[3,4-d]pyrimidin-6-yl)piperazin-1-yl)ethan-1-one]
Cc1nn(-c2cc(C(F)(F)F)cc(O)c2F)c2ccc(N3CCN(S(C)(=O)=O)C[C@H]3Cc3ccccc3)cc12 [Compound 2.28, (R)-3-(5-(2-Benzyl-4-(methylsulfonyl)piperazin-1-yl)-3-methyl-1H-indazol-1-yl)-2-fluoro-5-(trifluoromethyl)phenol]
Cc1ccc(C[C@@H]2COCCN2c2ncc3c(-c4cc(C(F)(F)F)c(F)c(O)c4F)nn(C)c3n2)cc1 [Compound 5.21, (R)-2,6-Difluoro-3-(1-methyl-6-(3-(4-methylbenzyl)morpholino)-1H-pyrazolo[3,4-d]pyrimidin-3-yl)-5-(trifluoromethyl)phenol]
CS(=O)(=O)N1CCN(c2cc3cnn(-c4cc(C(F)(F)F)c(F)c(O)c4F)c3cn2)[C@H](Cc2ccccc2)C1 [Compound 2.19, (R)-3-(5-(2-Benzyl-4-(methylsulfonyl)piperazin-1-yl)-1H-pyrazolo[3,4-c]pyridin-1-yl)-2,6-difluoro-5-(trifluoromethyl)phenol]
